biological target: T1, P2X purinoceptor 3 (Homo sapiens, UniProt P56373); assay: Inhibition Assay: Stably expressing cell line (C6BU-1 cell transfected with human P2X3 receptor gene (GenBank accession number Y07683) was used. The cells were seeded in a 96-well microtiter plate at a concentration of 8000 cells/well and cultured in the medium (8.3% fetal bovine serum, 8.3% horse serum, 1% antibiotic and antifungal in DMEM) for one day at 37° C. under 5% carbon dioxide atmosphere. The medium was replaced with 4 μM Fluo-3-AM solution (20 mM HEPES, 137 mM NaCl, 2.7 mM KCl, 0.9 in M MgCl2, 5.0 mM CaCl2, 5.6 D-glucose, 2.5 mM probenecid, 1.0% BSA, and 0.08% Pluronic F-127, pH 7.5) and incubated at 37° C. under 5% dioxide carbon atmosphere for one hour. The plate was washed with washing buffer (20 mM HEPES, 137 mM NaCl, 2.7 mM KCl, 0.9 mM MgCl2, 5.0 mM CaCl2, 5.6 mM D-glucose, 2.5 mM probenecid, pH 7.5), and each well was added with 40 μL of this buffer. The plate was placed in High-Throughput Screening System FDSS 3000 (Hamamatsu Photonics K.K.). Measurement of fluorescence inte
T1 sequence (P56373 whole entry): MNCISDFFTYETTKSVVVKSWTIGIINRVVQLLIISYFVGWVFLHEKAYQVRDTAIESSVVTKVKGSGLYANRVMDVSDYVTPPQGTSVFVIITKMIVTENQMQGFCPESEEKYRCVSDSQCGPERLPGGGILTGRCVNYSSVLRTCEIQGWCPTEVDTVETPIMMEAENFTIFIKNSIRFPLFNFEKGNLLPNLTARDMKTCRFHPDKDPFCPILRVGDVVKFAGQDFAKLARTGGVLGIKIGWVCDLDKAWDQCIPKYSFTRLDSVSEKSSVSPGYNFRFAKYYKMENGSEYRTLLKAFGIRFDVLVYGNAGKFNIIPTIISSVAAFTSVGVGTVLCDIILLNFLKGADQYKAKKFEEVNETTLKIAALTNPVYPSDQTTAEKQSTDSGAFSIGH

Compound	IC50 [nM]
CCOC(=O)c1cnc(Nc2ccc(OC(C)C)c(F)c2)n(Cc2ccc(Cl)cc2)c1=O	71
CCOC(=O)c1cn(Cc2ccc(Cl)cc2)c(Nc2ccc(OC(C)C)c(F)c2)nc1=O	108
CCOC(=O)Nc1cnc(Nc2ccc(OC(C)C)c(F)c2)n(Cc2ccc(Cl)cc2)c1=O	33

— ChEMBL document CHEMBL3886411, “Heterocyclic derivative and pharmaceutical composition comprising the same” (2015)
